Reference: patent US8551958B2, “Galactosylated pro-drugs of non-steroidal anti-inflammatories with improved pharmacokinetic characteristics and reduced toxicity of the starting drug” (Stewart Italia Srl, priority 2008, dated 2013)

What was measured:
[1] = tested on: mouse carrageenan paw oedema; experiment: Carrageenan oedema test; assay type: in vivo, mice
Protocol: Anti-inflammatory activity was tested by means of the carrageenan oedema test. The mice were divided into groups of six. The initial volumes of the leg of all the animals were measured using a plethysmometer. The oedema is induced in the leg by means of sub-plantar injection of 50 μl of saline solution containing 1% of carrageenan. The volume of the leg was measured at different time intervals. Said experimental model consists of two phases: a first, acute, phase lasting 6 hours and a second, chronic, phase, up to 72 hours.
The anti-inflammatory activity of the physical mixture of ketorolac and galactose was evaluated with the carrageenan induced mice hind paw edema assay, as described for ketogal. […]
The carrageenan induced mice hind paw oedema assay described by D'Agostino et al. (2007) was used to evaluate the acute anti-inflammatory activity of the conjugate. Mice were divided into control and test groups of six animals each. Initial paw volumes of all animals were measured using a plethysmometer apparatus (Ugo Basile, Milan, Italy) before treatment. Paw oedema was induced by a subplantar injection of 50 μL of saline containing 1% λ-carrageenan into the right hind paw. […] free acid and ketogal were orally administrated 1 h before carrageenan challenge. Paw volume was measured at different time intervals by plethysmometer. The increase in paw volume was evaluated as the difference between the paw volume measured at each time point and the basal paw volume measured immediately before carrageenan injection.

PPAR-gamma = experiment: Western blot, stomach, PPAR-gamma protein expression; assay type: in vivo, mice; settings: ketorolac 10 mg/Kg, ketogal 16.3 mg/Kg, oral, 3, 5 and 7 days
Source text: Animals were sacrificed and then liver, stomach and kidney were collected in glass tubes and analysed histologically and biochemically.

O=C(c1ccccc1)c1ccc2n1CC[C@@H]2C(=O)OCC1O[C@H](O)C(O)C(O)[C@H]1O (mixture of isomers) [Ketogal, ketorolac-D-galactos-6′-yl ester]
Anti-inflammatory activity compared with ketorolac ([1]; Ketogal 0.163 mg/kg versus ketorolac 0.1 mg/kg, oral and subcutaneous administration): better analgesic and anti-inflammatory activity than ketorolac | Oedema of the leg ([1]; Ketogal 0.163-16.3 mg/kg oral, 1 h prior to carrageenan): considerably reduces the oedema of the leg in a time-dependent and dose-dependent way | Formation of oedema, first phase ([1]; Ketogal 0.163-16.3 mg/kg oral, first, acute phase (6 hours)): all the doses tested inhibited formation of oedema | Effect on oedema, second phase ([1]; Ketogal oral, second, chronic phase up to 72 hours): continued also in the second phase | Gastric PPAR-gamma protein expression (PPAR-gamma): not inhibited
